Reference: article PMC11258331 (Scientific Reports, 2024)
Marks after values point to notes of the source that are not given here.

Experiments:
[1] = system: platelet aggregation induced by adenosine diphosphate (ADP); experiment: ADP (20 µM)-induced platelet aggregation, light transmission aggregometry; format: in vivo, human
Protocol: (§1) PD assessments were performed on Days 1 (≤ 24 h) and 5 (≤ 72 h) of each period (Supplementary Table 8); assessments included aPTT[18], FXIc[18], and bleeding time (assessed according to the PPD® Laboratories [Austin, TX] procedure where a blood pressure cuff, situated above the incision site, provided pressure at 40 mmHg and blood from the incision was wicked with filter paper every 30 s until cessation to record bleeding time). In addition, AA (1 mM), ADP) (20 µM)-, and collagen (5 μg/ml)-induced platelet aggregation assays were performed using light transmission aggregometry (PPD® Laboratories) and performed on Days 1 and 5 (≤ 24 h) for only Period 1.

[2] = system: platelet aggregation induced by collagen; experiment: Collagen (5 μg/ml)-induced platelet aggregation, light transmission aggregometry; format: in vivo, human
Protocol: as §1

[3] = system: arachidonic acid (AA)-induced platelet aggregation; experiment: AA (1 mM)-induced platelet aggregation, light transmission aggregometry; format: in vivo, human
Protocol: as §1

human carboxylesterase 1 = settings: liver; cited from earlier work
healthy participants [4] = experiment: Adverse events and bleeding-related AEs by treatment, phase I DDI study;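 note: counts from medical review of adverse event and bleeding-related adverse event reports, collected at selected times across the dosing interval, single US site, randomised 1:1:1 to one study part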
Protocol: Participants underwent screening evaluations to determine eligibility within 35 days of study drug administration, and eligible participants were randomly assigned 1:1:1 to a single part of the study.
Safety assessments were performed at selected times throughout the dosing interval (Supplementary Table 7). The assessments were based on medical review of AE and bleeding-related AE reports, and the results of vital sign measurements, ECG measurements, physical examinations, and clinical laboratory tests.

[5] = Plasma pharmacokinetics (LC-MS/MS, noncompartmental; GMR by linear mixed-effects model); settings: for AUC: AUC(TAU);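 for all read-outs here: participants at one US clinical research site, randomized 1:1:1 to a single study part, with 90% CIs from a mixed-effects model on log-transformed PK parameters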
Protocol: The study (ClinicalTrials.gov Identifier: NCT03698513) was conducted at 1 clinical research center in the United States. […] Participants underwent screening evaluations to determine eligibility within 35 days of study drug administration, and eligible participants were randomly assigned 1:1:1 to a single part of the study.
All statistical analyses and calculations were performed using SAS® software (SAS Institute, Inc., Cary, North Carolina; version 9.3). All safety and plasma PK/PD data were summarized using descriptive statistics. Descriptive summaries were presented for continuous variables using number of subjects (N), mean, SD; median, minimum, and maximum. […] CIs were constructed using a linear mixed-effects model with treatment as a fixed effect and measurements within participants as repeated measures fitted to the log-transformed PK parameters.

[6] = system: activated partial thromboplastin time (aPTT); experiment: Activated partial thromboplastin time (aPTT); format: in vivo, human; settings: postdose on Day 5
Protocol: as §1

healthy participants [7] = experiment: Bleeding time (PPD Laboratories procedure); format: in vivo, human; settings: milvexian alone (Treatments B, D, G)
Protocol: as §1

[8] = cited from earlier work
[9] = system: cytochrome P450 (CYP)–3A4; settings: spray-dried dispersion formulation studies; cited from earlier work
[10] = system: patients who underwent knee arthroplasty; settings: postoperative treatment, 25 mg QD to 200 mg BID; cited from earlier work
[11] = system: patients with acute ischemic stroke or high risk transient ischemic attack; settings: 25 mg QD or 25, 50, 100, 200 mg BID on background of aspirin and clopidogrel; cited from earlier work
[12] = Day 1, plasma, Treatment F (milvexian + clopidogrel), Part 2
[13] = human, plasma, oral, geometric mean (90% CI), Day 1, plasma, Treatment A (milvexian + aspirin + clopidogrel), Part 1
[14] = milvexian alone (Treatments B, D, G), Days 1 and 5
[15] = Day 1, Treatment A vs Treatment B (milvexian alone)
[16] = human, plasma, oral, geometric mean [n] (90% CI), Day 5, plasma, Treatment D (milvexian alone), Part 2

For `COC(=O)[C@H](c1ccccc1Cl)N1CCc2sccc2C1` [Clopidogrel], the “Inhibition of ADP-induced aggregation compared with baseline” value ([1]; drug alone (Treatment E or H)) was ~ 50%, the “Inhibition of collagen-induced aggregation compared with baseline” value ([2]; drug alone (Treatment E or H)) was < 10% and the “Inhibition of AA-induced aggregation compared with baseline” value ([3]; drug alone (Treatment E or H)) was ~ 60%. For the same compound, the “Share first-passed hydrolyzed to clopidogrel acid” value (human carboxylesterase 1) was ~ 85 % of absorbed drug, the Anal fissure hemorrhage (healthy participants [4]; Part 2 (Treatments D-F)) was 0 n (%) and the Contusion (healthy participants [4]; Part 2 (Treatments D-F)) was 1 (2.8)^†† n (%). For the same compound, the Deaths (healthy participants [4]; Part 2 (Treatments D-F)) was 0 n (%), the “Discontinuations due to AEs” value (healthy participants [4]; Part 2 (Treatments D-F)) was 1 (2.8)^‖ n (%) and the Epistaxis (healthy participants [4]; Part 2 (Treatments D-F)) was 0 n (%). The Gingival bleeding (healthy participants [4]; Part 2 (Treatments D-F)) was 0 n (%), the “Serious AEs” value (healthy participants [4]; Part 2 (Treatments D-F)) was 0 n (%) and the “Total participants with an AE” value (healthy participants [4]; Part 2 (Treatments D-F)) was 6 (16.7) n (%). For the same compound, the “Total participants with bleeding event(s)” value (healthy participants [4]; Part 2 (Treatments D-F)) was 1 (2.8) n (%), the “Vessel puncture site bruise” value (healthy participants [4]; Part 2 (Treatments D-F)) was 0 n (%) and the “Events of contusion reported by a single participant” value (healthy participants [4]; bleeding AE) was 1 events. For the same compound, the “Reduction of Cmax” value ([5]; Day 1, Treatment A vs Treatment C (aspirin and clopidogrel without milvexian)) was 14%, the “Reduction of Cmax” value ([5]; Day 1, Treatment F (with milvexian) vs Treatment E (clopidogrel alone)) was 9.1% and the “Cmax, geometric mean (90% CI)” value [5, 12] was 4.05 (3.09, 5.31) ng/mL. For the same compound, the “Cmax, geometric mean [n] (90% CI)” value ([5]; Day 5, plasma, Treatment C (placebo + aspirin + clopidogrel), Part 1) was 1.15 (0.898, 1.46) ng/mL, the Cmax [5, 13] was 3.29 ng/mL and the Cmax ([5]; human, plasma, oral, geometric mean (90% CI), Day 1, plasma, Treatment C (placebo + aspirin + clopidogrel), Part 1) was 3.83 ng/mL. It also gave a Cmax ([5]; human, plasma, oral, geometric mean (90% CI), Day 1, plasma, Treatment E (placebo + clopidogrel), Part 2) of 4.45 ng/mL, a half-life ([5]; human, plasma, oral, Mean T1/2, with (Treatment F) and without (Treatment E) milvexian, Days 1 and 5) of 1 to 2 h and a Tmax ([5]; human, plasma, oral, Median Tmax, Day 1, Treatments F and E) of 1 to 1.5 h. It also gave a Tmax ([5]; human, plasma, oral, Median Tmax, Day 5, Treatments F and E) of 0.5 to 1 h and a Tmax ([5]; human, plasma, oral, Tmax, median [n] (range), Day 5, plasma, Treatment C (placebo + aspirin + clopidogrel), Part 1) of 0.5 h.

With `C[C@@H]1CCC[C@H](n2cnc(-c3cc(Cl)ccc3-n3cc(Cl)nn3)cc2=O)c2cc(ccn2)-c2c(cnn2C(F)F)NC1=O` [Milvexian] the “Time by which aPTT returned to baseline” value [6] was ≤ 72 h, the “Effect on bleeding time” value (healthy participants [7]) was “did not increase bleeding times” and the “Change of ADP-induced platelet aggregation compared with baseline” value [1, 14] was < 10%. For the same compound, the “Change of collagen-induced platelet aggregation compared with baseline” value [2, 14] was < 10%, the “Effect on AA-induced platelet aggregation” value ([3]; milvexian alone (Treatments B, D, G), not consistent, no correlation with milvexian concentration) was “a decrease in arachidonic acid (AA)-induced platelet aggregation was observed” and the Urine excretion [8] was < 20%. The Route of metabolism [9] was “predominantly metabolized by cytochrome P450 (CYP)–3A4”, the “Effect on incidence of venous thromboembolism” value [10] was “reduced the incidence of venous thromboembolism in a dose-dependent manner” and the “Dose response for composite of symptomatic ischemic stroke or covert brain infarction” value [11] was “did not produce a statistically significant dose response”. The Anal fissure hemorrhage (healthy participants [4]; Part 2 (Treatments D-F)) was 0 n (%), the Contusion (healthy participants [4]; Part 2 (Treatments D-F)) was 0 n (%) and the Deaths (healthy participants [4]; Part 2 (Treatments D-F)) was 0 n (%). For the same compound, the “Discontinuations due to AEs” value (healthy participants [4]; Part 2 (Treatments D-F)) was 1 (2.8)^§ n (%), the Epistaxis (healthy participants [4]; Part 2 (Treatments D-F)) was 0 n (%) and the Gingival bleeding (healthy participants [4]; Part 2 (Treatments D-F)) was 0 n (%). The “Serious AEs” value (healthy participants [4]; Part 2 (Treatments D-F)) was 0 n (%), the “Total participants with an AE” value (healthy participants [4]; Part 2 (Treatments D-F)) was 5 (13.9) n (%) and the “Total participants with bleeding event(s)” value (healthy participants [4]; Part 2 (Treatments D-F)) was 0 n (%). For the same compound, the “Vessel puncture site bruise” value (healthy participants [4]; Part 2 (Treatments D-F)) was 0 n (%), the Anal fissure hemorrhage (healthy participants [4]; Part 3 (Treatments G-I)) was 1 (2.7) n (%) and the Contusion (healthy participants [4]; Part 3 (Treatments G-I)) was 0 n (%). For the same compound, the Deaths (healthy participants [4]; Part 3 (Treatments G-I)) was 0 n (%), the “Discontinuations due to AEs” value (healthy participants [4]; Part 3 (Treatments G-I)) was 1 (2.7)^¶ n (%) and the Epistaxis (healthy participants [4]; Part 3 (Treatments G-I)) was 0 n (%). The Gingival bleeding (healthy participants [4]; Part 3 (Treatments G-I)) was 0 n (%), the “Serious AEs” value (healthy participants [4]; Part 3 (Treatments G-I)) was 0 n (%) and the “Total participants with an AE” value (healthy participants [4]; Part 3 (Treatments G-I)) was 6 (16.2) n (%). For the same compound, the “Total participants with bleeding event(s)” value (healthy participants [4]; Part 3 (Treatments G-I)) was 1 (2.7) n (%), the “Vessel puncture site bruise” value (healthy participants [4]; Part 3 (Treatments G-I)) was 0 n (%) and the “Events of anal fissure hemorrhage reported by a single participant” value (healthy participants [4]; bleeding AE, Part 3, Treatment G) was 1 events. For the same compound, the “Reduction of AUC(TAU)” value [5, 15] was 15%, the “Reduction of Cmax” value [5, 15] was 17% and the “Tmax, median (range)” value ([5]; Day 1, plasma, Treatment A (milvexian + aspirin + clopidogrel), Part 1) was 4.00 (2.13, 6.02) h. For the same compound, the “Tmax, median (range)” value ([5]; Day 1, plasma, Treatment B (milvexian alone), Part 1) was 3.00 (2.00, 4.13) h, the “Tmax, median (range)” value ([5]; Day 1, plasma, Treatment D (milvexian alone), Part 2) was 4.00 (2.00, 6.00) h and the “AUC(TAU), geometric mean [n] (90% CI)” value [5, 12] was 5042 (4621, 5503) ng•h/mL. For the same compound, the “Tmax, median (range)” value [5, 12] was 4.00 (2.00, 4.13) h, the “Tmax, median (range)” value ([5]; Day 1, plasma, Treatment G (milvexian alone), Part 3) was 4.00 (2.00, 6.02) h and the “Tmax, median (range)” value ([5]; Day 1, plasma, Treatment I (milvexian + aspirin), Part 3) was 4.00 (2.00, 6.03) h. The “Tmax, median [n] (range)” value ([5]; Day 5, plasma, Treatment B (milvexian alone), Part 1) was 3.00 (0.00, 6.00) h, the “Tmax, median [n] (range)” value ([5]; Day 5, plasma, Treatment F (milvexian + clopidogrel), Part 2) was 4.00 (1.00, 6.00) h and the AUC ([5]; human, plasma, oral, geometric mean [n] (90% CI), Day 1, plasma, Treatment B (milvexian alone), Part 1) was 5610 ng·h/mL. The AUC [5, 16] was 22000 ng·h/mL, the Cmax [5, 13] was 718 ng/mL and the Cmax ([5]; human, plasma, oral, geometric mean (90% CI), Day 1, plasma, Treatment B (milvexian alone), Part 1) was 868 ng/mL. It also gave a Cmax ([5]; human, plasma, oral, geometric mean (90% CI), Day 1, plasma, Treatment D (milvexian alone), Part 2) of 898 ng/mL, a Cmax ([5]; human, plasma, oral, geometric mean (90% CI), Day 1, plasma, Treatment F (milvexian + clopidogrel), Part 2) of 817 ng/mL and a Cmax ([5]; human, plasma, oral, geometric mean (90% CI), Day 1, plasma, Treatment G (milvexian alone), Part 3) of 867 ng/mL. For the same compound, the Cmax ([5]; human, plasma, oral, geometric mean (90% CI), Day 1, plasma, Treatment I (milvexian + aspirin), Part 3) was 850 ng/mL, the Cmax ([5]; human, plasma, oral, geometric mean [n] (90% CI), Day 5, plasma, Treatment B (milvexian alone), Part 1) was 2690 ng/mL and the Cmax [5, 16] was 2670 ng/mL. It also gave a Cmax ([5]; human, plasma, oral, geometric mean [n] (90% CI), Day 5, plasma, Treatment F (milvexian + clopidogrel), Part 2) of 2500 ng/mL, a Tmax ([5]; human, plasma, oral, Median Tmax, across Treatments A and B) of 3 to 4 h and a Tmax ([5]; human, plasma, oral, Tmax, median [n] (range), Day 5, plasma, Treatment D (milvexian alone), Part 2) of 3.05 h.
